Data reported in US9695155B2, “Herbicidal substituted pyrimidinyloxy benzene compounds” (E. I. DU PONT DE NEMOURS AND COMPANY, priority 2013, dated 2017).

Tests used:
[1] = tested on: sedge, umbrella; assay: Test B flooded paddy test; assay type: in vivo, Cyperus difformis; settings: Flood, 250 g ai/ha, 0 to 100 scale where 0 is no effect and 100 is complete control
Outline: (§1)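 Post-emergence paddy-water application at the 2-leaf stage, with 3 cm flood kept for the whole test. Response was judged visually relative to controls after 13 to 15 greenhouse days, 0 indicating no effect and 100 complete control.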

[2] = tested on: corn; assay: Test A postemergence; assay type: in vivo, Zea mays
Outline: (§2)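 Compounds in non-phytotoxic solvent with surfactant applied as soil spray preemergence, or postemergence to plants 2-10 cm at one- to two-leaf stage, in loam/sand. After approximately 10 days in greenhouse, injury rated visually versus untreated controls, 0 (no effect) to 100 (complete control).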

[3] = tested on: johnsongrass; assay: Test C preemergence; assay type: in vivo, Sorghum halepense
Outline: (§3)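 Rated visually on 0–100 (100 = complete control) after 13–15 days under glass. Treatments went onto freshly seeded loam/sand soil or onto emerged plants at the 1- to 4-leaf stage, using a surfactant-containing solvent formulation.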

[4] = tested on: velvetleaf; assay: Test C preemergence; assay type: in vivo, Abutilon theophrasti
Outline: as §3

[5] = tested on: barnyardgrass; assay: Test A postemergence; assay type: in vivo, Echinochloa crus-galli
Outline: as §2

[6] = tested on: barnyardgrass; assay: Test A preemergence; assay type: in vivo, Echinochloa crus-galli
Outline: as §2

[7] = tested on: galium; assay: Test C preemergence; assay type: in vivo, Galium aparine
From the text: Seeds of plant species selected from blackgrass (Alopecurus myosuroides), Italian ryegrass (Lolium multiflorum), wheat, winter (winter wheat, Triticum aestivum), galium (catchweed bedstraw, Galium aparine), corn (Zea mays), large (Lg) crabgrass (Digitaria sanguinalis), giant foxtail (Setaria faberii), johnsongrass (Sorghum halepense), lambsquarters (Chenopodium album), morningglory (Ipomoea coccinea), yellow nutsedge (Cyperus esculentus), pigweed (Amaranthus retroflexus), ragweed (common ragweed, Ambrosia elatior), soybean (Glycine max), barnyardgrass (Echinochloa crus-galli), oilseed rape (Brassica napus), waterhemp (common waterhemp, Amaranthus rudis), kochia (Kochia scoparia), wild oat (Avena fatua), surinam grass (Brachiaria decumbens), foxtail, green (green foxtail, Setaria viridis), goosegrass (Eleusine indica), bromegrass, downy (downy bromegrass, Bromus tectorum), nightshade (eastern black nightshade, Solanum ptycanthum), cocklebur (common cocklebur, Xanthium strumarium), cupgrass, woolly (woolly cupgrass, Eriochloa villosa), bermudagrass (Cynodon dactylon), sunflower, (common oilseed sunflower, Helianthus annuus), Russian thistle (Salsola kali), and velvetleaf (Abutilon theophrasti) were planted into a blend of loam soil and sand and treated preemergence with test chemicals formulated in a non-phytotoxic solvent mixture which included a surfactant.
At the same time, plants selected from these crop and weed species and also barley, winter (winter barley, Hordeum vulgare), windgrass (Apera spica-venti), chickweed (common chickweed, Stellaria media), deadnettle (henbit deadnettle, Lamium amplexicaule), and canarygrass (littleseed canarygrass, Phalaris minor) were planted in pots containing Redi-Earth® planting medium (Scotts Company, 14111 Scottslawn Road, Marysville, Ohio 43041) comprising spaghnum peat moss, vermiculite, wetting agent and starter nutrients and treated with postemergence applications of test chemicals formulated in the same manner. Plants ranged in height from 2 to 18 cm (1- to 4-leaf stage) for postemergence treatments. Treated plants and controls were maintained in a greenhouse for 13 to 15 days, after which time all species were compared to controls and visually evaluated. Plant response ratings, summarized in Table C, are based on a scale of 0 to 100 where 0 is no effect and 100 is complete control. A dash (-) response means no test result.

[8] = tested on: rice; assay: Test B flooded paddy test; assay type: in vivo, Oryza sativa; settings: Flood, 250 g ai/ha, 0 to 100 scale where 0 is no effect and 100 is complete control
Outline: as §1

[9] = tested on: large (Lg) crabgrass; assay: Test C preemergence; assay type: in vivo, Digitaria sanguinalis
Outline: as §3

[10] = 31 g ai/ha, 0 to 100 scale, 0 no effect, 100 complete control
[11] = 125 g ai/ha, 0 to 100 scale, 0 no effect, 100 complete control
[12] = 16 g ai/ha, preemergence, scale 0 to 100 (0 no effect, 100 complete control)
[13] = 125 g ai/ha, preemergence, scale 0 (no effect) to 100 (complete control)
[14] = Preemergence, 62 g ai/ha, scale 0 to 100, 0 no effect, 100 complete control
[15] = 125 g ai/ha, 0 to 100 scale where 0 is no effect and 100 is complete control
[16] = 500 g ai/ha, 0 to 100 scale where 0 is no effect and 100 is complete control
[17] = 62 g ai/ha, preemergence, scale 0 (no effect) to 100 (complete control)
[18] = Preemergence, 31 g ai/ha, scale 0 to 100, 0 no effect, 100 complete control

`N#Cc1cccc(Oc2ncc(Cl)cn2)c1-n1cnc(C(F)(F)F)c1` [Compound 252, 3-[(5-chloro-2-pyrimidinyl)oxy]-2-[4-(trifluoromethyl)-1H-imidazol-1-yl]benzonitrile] was tested, and the pest or weed control at 250 g/ha ([1]; Cyperus difformis, read-out: Plant response rating, Sedge, Umbrella) was 80%, the Corn plant response rating (crop injury, 0 = no effect, 100 = complete kill) at 31 g/ha ([2]; Zea mays, post-emergence, 240 h, 31 g ai/ha, 0 to 100 scale, 0 no effect, 100 complete control) was 20% and the Corn plant response rating (crop injury, 0 = no effect, 100 = complete kill) at 125 g/ha ([2]; Zea mays, post-emergence, 240 h, 125 g ai/ha, 0 to 100 scale, 0 no effect, 100 complete control) was 60%. For the same compound, the Corn plant response rating (crop injury, 0 = no effect, 100 = complete kill) at 500 g/ha ([2]; Zea mays, post-emergence, 240 h, 500 g ai/ha, 0 to 100 scale where 0 is no effect and 100 is complete control) was 90%, the pest or weed control at 16 g/ha ([3]; Sorghum halepense, pre-emergence, 16 g ai/ha, preemergence, scale 0 to 100 (0 no effect, 100 complete control), read-out: Johnsongrass plant response rating) was 5% and the pest or weed control at 125 g/ha ([3]; Sorghum halepense, pre-emergence, 125 g ai/ha, preemergence, scale 0 (no effect) to 100 (complete control), read-out: Johnsongrass plant response rating) was 100%. It also gave a pest or weed control at 62 g/ha ([3]; Sorghum halepense, pre-emergence, Preemergence, 62 g ai/ha, scale 0 to 100, 0 no effect, 100 complete control, read-out: Plant response rating, Johnsongrass) of 80%, a pest or weed control at 16 g/ha ([4]; Abutilon theophrasti, pre-emergence, 16 g ai/ha, preemergence, scale 0 to 100 (0 no effect, 100 complete control), read-out: Velvetleaf plant response rating) of 75% and a pest or weed control at 125 g/ha ([4]; Abutilon theophrasti, pre-emergence, 125 g ai/ha, preemergence, scale 0 (no effect) to 100 (complete control), read-out: Velvetleaf plant response rating) of 100%. For the same compound, the pest or weed control at 62 g/ha ([4]; Abutilon theophrasti, pre-emergence, Preemergence, 62 g ai/ha, scale 0 to 100, 0 no effect, 100 complete control, read-out: Plant response rating, Velvetleaf) was 100%, the pest or weed control at 31 g/ha ([5]; Echinochloa crus-galli, post-emergence, 240 h, 31 g ai/ha, 0 to 100 scale, 0 no effect, 100 complete control, read-out: Plant response rating, Barnyardgrass) was 20% and the pest or weed control at 125 g/ha ([5]; Echinochloa crus-galli, post-emergence, 240 h, 125 g ai/ha, 0 to 100 scale, 0 no effect, 100 complete control, read-out: Plant response rating, Barnyardgrass) was 100%. For the same compound, the pest or weed control at 500 g/ha ([5]; Echinochloa crus-galli, post-emergence, 240 h, 500 g ai/ha, 0 to 100 scale where 0 is no effect and 100 is complete control, read-out: Plant response rating, Barnyardgrass) was 100%, the “Barnyardgrass plant response rating (0 to 100 scale, 0 is no effect, 100 is complete control)” value ([6]; 125 g ai/ha) was 100 and the pest or weed control at 31 g/ha ([6]; Echinochloa crus-galli, pre-emergence, 240 h, 31 g ai/ha, 0 to 100 scale where 0 is no effect and 100 is complete control, visual, approximately 10 days, read-out: Plant response rating, Barnyardgrass) was 70%. The pest or weed control at 500 g/ha ([6]; Echinochloa crus-galli, pre-emergence, 240 h, 500 g ai/ha, 0 to 100 scale where 0 is no effect and 100 is complete control, read-out: Barnyardgrass plant response rating) was 100%, the pest or weed control at 16 g/ha ([7]; Galium, pre-emergence, 16 g ai/ha, preemergence, scale 0 to 100 (0 no effect, 100 complete control), read-out: Galium plant response rating) was 80% and the pest or weed control at 125 g/ha ([7]; Galium, pre-emergence, 125 g ai/ha, preemergence, scale 0 (no effect) to 100 (complete control), read-out: Galium plant response rating) was 98%. The pest or weed control at 62 g/ha ([7]; Galium, pre-emergence, Preemergence, 62 g ai/ha, scale 0 to 100, 0 no effect, 100 complete control, read-out: Plant response rating, Galium) was 90%, the plant injury at 250 g/ha ([8]; Oryza sativa, read-out: Plant response rating, Rice) was 0% and the pest or weed control at 16 g/ha ([9]; Digitaria sanguinalis, pre-emergence, 16 g ai/ha, preemergence, scale 0 to 100 (0 no effect, 100 complete control), read-out: Crabgrass, Large plant response rating) was 60%. The pest or weed control at 125 g/ha ([9]; Digitaria sanguinalis, pre-emergence, 125 g ai/ha, preemergence, scale 0 (no effect) to 100 (complete control), read-out: Crabgrass, Large plant response rating) was 100% and the pest or weed control at 62 g/ha ([9]; Digitaria sanguinalis, pre-emergence, Preemergence, 62 g ai/ha, scale 0 to 100, 0 no effect, 100 complete control, read-out: Plant response rating, Crabgrass, Large) was 100%.

In the case of `FCc1cccc(Oc2ncc(Cl)cn2)c1-n1cc(Cl)cn1` [Compound 250], the “Plant response rating, Sedge, Umbrella” value [1] is reported as 35, the “Plant response rating, Corn” value [2, 10] is reported as 10 and the “Plant response rating, Corn” value [2, 11] is reported as 30. The “Johnsongrass plant response rating” value [3, 12] was 0, the “Johnsongrass plant response rating” value [3, 13] was 70 and the “Plant response rating, Johnsongrass” value [3, 14] was 35. The “Velvetleaf plant response rating” value [4, 12] was 100, the “Velvetleaf plant response rating” value [4, 13] was 100 and the “Plant response rating, Velvetleaf” value [4, 14] was 100. The “Plant response rating, Barnyardgrass” value [5, 10] was 10, the “Plant response rating, Barnyardgrass” value [5, 11] was 60 and the “Plant response rating, Barnyardgrass” value ([6]; 31 g ai/ha, 0 to 100 scale where 0 is no effect and 100 is complete control, visual, approximately 10 days) was 10. For the same compound, the “Barnyardgrass plant response rating (0 to 100 scale, 0 is no effect, 100 is complete control)” value ([6]; 125 g ai/ha) was 90, the “Galium plant response rating” value [7, 12] was 0 and the “Galium plant response rating” value [7, 13] was 98. The “Plant response rating, Galium” value [7, 14] was 70, the “Plant response rating, Rice” value [8] was 0 and the “Crabgrass, Large plant response rating” value [9, 12] was 75. The “Crabgrass, Large plant response rating” value [9, 13] was 100 and the “Plant response rating, Crabgrass, Large” value [9, 14] was 98.

In the case of `Fc1cnc(Oc2cccc(C(F)F)c2-n2cc(Br)cn2)nc1` [Compound 112], the “Plant response rating, Sedge, Umbrella” value [1] is reported as 85, the “Plant response rating, Corn” value [2, 15] is reported as 30 and the “Plant response rating, Corn” value [2, 16] is reported as 70. For the same compound, the “Johnsongrass plant response rating” value [3, 12] was 0, the “Johnsongrass plant response rating” value [3, 17] was 20 and the “Johnsongrass plant response rating” value [3, 13] was 40. The “Plant response rating, Johnsongrass” value [3, 18] was 5, the “Velvetleaf plant response rating” value [4, 12] was 65 and the “Velvetleaf plant response rating” value [4, 17] was 100. For the same compound, the “Velvetleaf plant response rating” value [4, 13] was 100, the “Plant response rating, Velvetleaf” value [4, 18] was 70 and the “Plant response rating, Barnyardgrass” value [5, 15] was 40. The “Plant response rating, Barnyardgrass” value [5, 16] was 90, the “Plant response rating, Barnyardgrass” value [6, 15] was 70 and the “Barnyardgrass plant response rating” value ([6]; 500 g ai/ha, 0 to 100 scale, 0 no effect, 100 complete control, approx. 10 days) was 100. For the same compound, the “Galium plant response rating” value [7, 12] was 55, the “Galium plant response rating” value [7, 17] was 100 and the “Galium plant response rating” value [7, 13] was 95. For the same compound, the “Plant response rating, Galium” value [7, 18] was 98, the “Plant response rating, Rice” value [8] was 0 and the “Crabgrass, Large plant response rating” value [9, 12] was 35. For the same compound, the “Crabgrass, Large plant response rating” value [9, 17] was 100, the “Crabgrass, Large plant response rating” value [9, 13] was 100 and the “Plant response rating, Crabgrass, Large” value [9, 18] was 100.
